Source: ChEMBL document CHEMBL5143740, “Discovery of Novel Phosphoinositide-3-Kinase α Inhibitors with High Selectivity, Excellent Bioavailability, and Long-Acting Efficacy for Gastric Cancer” (J Med Chem, 2022)
Active and inactive are the calls of the source. The calls are words filed in the database; no cut-off is given here.

Experiments:
[1] = target: Phosphatidylinositol 4,5-bisphosphate 3-kinase catalytic subunit beta isoform (Homo sapiens, UniProt P42338); assay: Inhibition of PI3Kbeta (unknown origin) in presence of [33P]-ATP incubated for 2 hrs by hotspot kinase assay
Sequence of Phosphatidylinositol 4,5-bisphosphate 3-kinase catalytic subunit beta isoform (P42338 whole entry, canonical isoform): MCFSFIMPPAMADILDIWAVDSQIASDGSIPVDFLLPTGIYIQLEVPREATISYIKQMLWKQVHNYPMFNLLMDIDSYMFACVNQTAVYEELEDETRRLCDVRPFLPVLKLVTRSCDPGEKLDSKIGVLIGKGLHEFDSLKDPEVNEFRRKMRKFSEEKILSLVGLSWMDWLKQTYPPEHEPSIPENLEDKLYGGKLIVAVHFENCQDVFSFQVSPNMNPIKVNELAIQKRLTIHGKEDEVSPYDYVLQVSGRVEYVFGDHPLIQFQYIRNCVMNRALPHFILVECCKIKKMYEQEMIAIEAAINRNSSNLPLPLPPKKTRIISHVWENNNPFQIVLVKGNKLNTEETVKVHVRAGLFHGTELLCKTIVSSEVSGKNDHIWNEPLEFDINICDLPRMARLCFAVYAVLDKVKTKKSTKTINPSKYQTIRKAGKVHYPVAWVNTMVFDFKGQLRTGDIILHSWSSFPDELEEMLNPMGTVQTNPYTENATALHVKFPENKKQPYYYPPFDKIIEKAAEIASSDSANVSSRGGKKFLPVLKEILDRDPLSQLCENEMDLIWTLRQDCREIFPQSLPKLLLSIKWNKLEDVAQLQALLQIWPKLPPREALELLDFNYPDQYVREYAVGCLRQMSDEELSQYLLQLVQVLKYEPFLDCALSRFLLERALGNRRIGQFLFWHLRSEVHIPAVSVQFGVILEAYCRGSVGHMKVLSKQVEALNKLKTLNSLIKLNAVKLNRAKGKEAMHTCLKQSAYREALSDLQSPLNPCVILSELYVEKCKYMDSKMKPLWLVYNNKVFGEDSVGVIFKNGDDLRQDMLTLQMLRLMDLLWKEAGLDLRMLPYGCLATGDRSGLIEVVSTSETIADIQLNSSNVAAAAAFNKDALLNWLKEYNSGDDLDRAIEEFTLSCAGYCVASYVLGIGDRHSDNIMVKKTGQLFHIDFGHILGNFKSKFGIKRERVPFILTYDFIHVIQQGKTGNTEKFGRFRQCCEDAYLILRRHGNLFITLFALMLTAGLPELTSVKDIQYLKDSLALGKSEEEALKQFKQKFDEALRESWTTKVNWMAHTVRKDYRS

[2] = species: Homo sapiens; assay: Selectivity index, ratio of IC50 for inhibition of PI3Kbeta (unknown origin) to IC50 for inhibition of PI3Kalpha (unknown origin)
[3] = system: MGC-803; assay: Induction of apoptosis in human MGC-803 cells assessed as early apoptotic cells at 8 uM incubated for 36 hrs by annexin V-FITC based flow cytometry analysis (reference value: 2.49 %); type: functional
[4] = system: RPMI-8226; assay: Antiproliferative activity against human RPMI-8226 cells assessed as inhibition of cell growth incubated for 72 hrs by CCK8 assay; type: functional, cell-based; conditions: RPMI-8226, 72 h
[5] = system: MDA-MB-231; assay: Antiproliferative activity against human MDA-MB-231 cells assessed as inhibition of cell growth incubated for 72 hrs by CCK8 assay; type: functional, cell-based; conditions: MDA-MB-231, 72 h
[6] = system: MGC-803; assay: Antitumor activity against human MGC-803 cells xenografted in BALB/c nude mouse assessed as tumor growth inhibition at 10 mg/kg, ip administered every day for 3 weeks; type: functional; conditions: MGC-803, 504 h, read-out: TGI
[7] = Tmax in Sprague-Dawley rat at 1 mg/kg, iv measured after 24 hrs; type: ADME, organism-based; conditions: in vivo
[8] = system: MOLT-4; assay: Antiproliferative activity against human MOLT-4 cells assessed as inhibition of cell growth incubated for 72 hrs by CCK8 assay; type: functional, cell-based; conditions: MOLT-4, 72 h
[9] = target: Phosphatidylinositol 4,5-bisphosphate 3-kinase catalytic subunit gamma isoform (Homo sapiens, UniProt P48736)
Sequence of Phosphatidylinositol 4,5-bisphosphate 3-kinase catalytic subunit gamma isoform (P48736 whole entry, canonical isoform): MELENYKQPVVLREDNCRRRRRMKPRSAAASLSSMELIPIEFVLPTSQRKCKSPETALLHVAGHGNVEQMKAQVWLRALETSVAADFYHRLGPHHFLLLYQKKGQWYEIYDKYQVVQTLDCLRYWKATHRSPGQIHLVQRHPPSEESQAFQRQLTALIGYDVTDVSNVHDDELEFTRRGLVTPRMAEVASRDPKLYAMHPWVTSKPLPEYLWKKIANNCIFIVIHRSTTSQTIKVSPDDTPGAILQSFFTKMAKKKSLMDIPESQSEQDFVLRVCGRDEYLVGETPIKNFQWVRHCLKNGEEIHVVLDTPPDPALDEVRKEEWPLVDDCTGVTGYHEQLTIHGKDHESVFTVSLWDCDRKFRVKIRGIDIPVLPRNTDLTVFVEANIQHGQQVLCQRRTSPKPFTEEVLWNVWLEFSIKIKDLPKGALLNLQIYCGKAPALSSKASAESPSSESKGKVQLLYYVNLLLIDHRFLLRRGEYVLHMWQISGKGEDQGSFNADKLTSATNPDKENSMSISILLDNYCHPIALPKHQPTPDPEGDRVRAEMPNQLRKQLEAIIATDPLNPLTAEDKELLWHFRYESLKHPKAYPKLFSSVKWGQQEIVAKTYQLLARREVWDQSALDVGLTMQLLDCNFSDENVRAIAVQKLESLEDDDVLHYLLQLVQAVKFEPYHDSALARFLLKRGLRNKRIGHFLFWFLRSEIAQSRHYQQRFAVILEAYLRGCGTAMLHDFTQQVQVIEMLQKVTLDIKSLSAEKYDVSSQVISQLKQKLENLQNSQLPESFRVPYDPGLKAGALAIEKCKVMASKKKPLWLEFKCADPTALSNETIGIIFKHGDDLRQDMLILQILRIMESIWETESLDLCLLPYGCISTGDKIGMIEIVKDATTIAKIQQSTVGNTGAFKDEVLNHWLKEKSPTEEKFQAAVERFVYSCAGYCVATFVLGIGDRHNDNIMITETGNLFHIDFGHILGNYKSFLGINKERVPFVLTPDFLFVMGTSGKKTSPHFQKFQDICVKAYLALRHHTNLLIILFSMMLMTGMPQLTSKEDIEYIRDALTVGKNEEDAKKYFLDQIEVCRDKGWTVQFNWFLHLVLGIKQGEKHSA

[10] = species: Homo sapiens; assay: Selectivity index, ratio of IC50 for inhibition of PI3Kgamma (unknown origin) to IC50 for inhibition of PI3Kalpha (unknown origin)
[11] = Clearance in Sprague-Dawley rat at 1 mg/kg, iv measured after 24 hrs; type: ADME, organism-based; conditions: in vivo
[12] = system: U-251; assay: Antiproliferative activity against human U-251 cells assessed as inhibition of cell growth incubated for 72 hrs by CCK8 assay; type: functional, cell-based; conditions: U-251, 72 h
[13] = AUC (0 to infinitive) in Sprague-Dawley rat at 10 mg/kg, po measured after 24 hrs; type: ADME, organism-based; design: dose 10 mg/kg, time 24 hrs, route po; conditions: in vivo
[14] = AUC (0 to t) in Sprague-Dawley rat at 10 mg/kg, po measured after 24 hrs; type: ADME, organism-based; design: dose 10 mg/kg, time 24 hrs, route po; conditions: in vivo
[15] = Toxicity in BALB/c mouse xenografted with human MG C-803cells assessed as effect on body weight at 10 mg/kg, IP administered every day for 3 week; type: organism-based; conditions: in vivo, 504 h, time 3 weeks
[16] = Tmax in Sprague-Dawley rat at 10 mg/kg, po measured after 24 hrs; type: ADME, organism-based; conditions: in vivo
[17] = Half life in Sprague-Dawley rat at 1 mg/kg, iv measured after 24 hrs; type: ADME, organism-based; conditions: in vivo
[18] = system: MGC-803; assay: Inhibition of PI3K signalling pathway in human MGC-803 cells assessed as reduction in pAKT level at 2 to 8 uM by Western blotting analysis; type: cell-based; conditions: dose 2-8 µM
[19] = system: MGC-803; assay: Induction of apoptosis in human MGC-803 cells assessed as late apoptotic cells at 2 uM incubated for 36 hrs by annexin V-FITC based flow cytometry analysis (reference value: 2.61 %); type: functional
[20] = system: MGC-803; assay: Induction of apoptosis in human MGC-803 cells assessed as early apoptotic cells at 4 uM incubated for 36 hrs by annexin V-FITC based flow cytometry analysis (reference value: 2.49 %); type: functional
[21] = system: MGC-803; assay: Induction of apoptosis in human MGC-803 cells assessed as necrotic cells at 2 uM incubated for 36 hrs by annexin V-FITC based flow cytometry analysis (reference value: […]); type: functional
[22] = Toxicity in BALB/c mouse xenografted with human MG C-803cells assessed as effect on body weight at 30 mg/kg, po administered every day for 3 week in presence of taxol; type: organism-based; conditions: in vivo, 504 h, time 3 weeks
[23] = system: MCF7; assay: Antiproliferative activity against human MCF7 cells assessed as inhibition of cell growth incubated for 72 hrs by CCK8 assay; type: functional, cell-based; conditions: MCF7, 72 h
[24] = species: Homo sapiens; assay: Selectivity index, ratio of IC50 for inhibition of PI3Kdelta (unknown origin) to IC50 for inhibition of PI3Kalpha (unknown origin)
[25] = system: MGC-803; assay: Antitumor activity against human MGC-803 cells xenografted in BALB/c nude mouse assessed as tumor growth inhibition at 30 mg/kg, po administered every day for 3 weeks in presence of taxol; type: functional; conditions: MGC-803, 504 h, read-out: TGI
[26] = system: MGC-803; assay: Induction of apoptosis in human MGC-803 cells assessed as necrotic cells at 4 uM incubated for 36 hrs by annexin V-FITC based flow cytometry analysis (reference value: […]); type: functional

Work on Nc1nc2cc(-c3nc(N4CCOCC4)nc(N4CCOCC4)n3)ccc2o1 yielded an IC50 [1] of 146 nM, a Ratio IC50 [2] of 33 and an Activity [3] of 57.88%. It also gave an IC50 [4] of 430 nM, an IC50 [5] of 430 nM and an inhibition in vivo at 10 mg/kg [6] of 41.5%. For the same compound, the Tmax [7] was 10.8 s, the IC50 [8] was 430 nM and the IC50 [9] was 128 nM. It also gave a Ratio IC50 [10] of 29, a clearance [11] of 5.72 mL/min/kg and an IC50 [12] of 430 nM. For the same compound, the AUC(0-inf) [13] was 38100 ng·h/mL, the AUC(0-t) at 24 h [14] was 36700 ng·h/mL and the Activity [15] was “Non-Toxic”. The Tmax [16] was 9.33 h, the half-life [17] was 377 min and the inhibition [18] was “Active”. It also gave an Activity [19] of 4.55%, an Activity [20] of 31.31% and an Activity [21] of 0.95%. For the same compound, the Activity [22] was “Non-Toxic”, the IC50 [23] was 430 nM and the Ratio IC50 [24] was 34. The inhibition in vivo at 30 mg/kg [25] was 63.9% and the Activity [26] was 1.11%.
